According to US20130296228A1, “EFFLUX PUMP INHIBITORS” (priority 2010, published 2013):
Where “and” joins values, the source holds several entries; their conditions need not be identical. Equal entries are not always repeated. Where two headings read alike, the source gives them in different places. Residues, ends and D or L forms follow the SMILES beside them.

What was measured:
P. aeruginosa 23587 = test: Diameter of zone of inhibition of antimicrobial agents with or without efflux pump inhibitor; format: cell-based; details: for inhibition of MDR RND efflux pumps, concluded from potentiation: clinical isolates of P. aeruginosa; for change of activity in the presence of PAN: clinical isolates P. aeruginosa 23587 and P. aeruginosa 2301
From the text: Since RND efflux pumps operate by utilizing energy in […], metabolic inhibitor, sodium azide brings about MDR RND pump inhibition by causing energy deprivation.

P. aeruginosa 2301 [1] = test: as above; format: cell-based; details: for Diameter of zone of inhibition: P. aeruginosa 2301
P. aeruginosa 2301 [2] = test: Survival of high density inoculation in MHA medium; format: cell-based; details: high density inoculation 2-5 × 10^9 CFU/ml; 20 mcg/ml in MHA medium
From the text: In a most surprising manner, the combination of ceftazidime and azithromycin and tigecycline respectively brought about more than 7 log reduction in the bacterial count as compared to individual effects in highly resistant Pseudomonas strain. Moreover in a very unusual and surprising manner this tremendous bactericidal effect is taking place at concentrations much below than their individual inhibitory concentrations. […] It is also likely that ceftazidime interacts with outer membrane porins and acts as a porin modulator. Bacalum et al. have shown that ceftazidime binds to outer membrane porins with high affinity (Bacalum et al. Romanian. J. Biophys., 19, 105-116, 2009).

[3] = test system: MDR clinical isolate of P. aeruginosa 2301; test: Systemic infection in mice, % survival; format: in vivo; details: Table 7, mice, Oral
[4] = Table 1, +PAN (20 μg/ml), 12.5 μg/well
[5] = Table 1, P. aeruginosa 23587, +PAN (20 μg/ml), 12.5 μg/well
[6] = Table 2, P. aeruginosa (23587), +sodium azide (10 μg/ml), 50 μg/well
[7] = Table 2, P. aeruginosa (23587), +sodium azide (10 μg/ml), 100 μg/well
[8] = Table 2, P. aeruginosa (23587), +sodium azide (10 μg/ml), 200 μg/well

## NC(N)=NCCCC(NC(=O)[C@@H](N)Cc1ccccc1)C(=O)Nc1ccc2ccccc2c1 (stereo partly drawn) [PAN, Phe-Arg-beta-naphthylamide] (HELM PEPTIDE1{F.[N=C(N)NCCCC(N[*:1])C(=O)[*:2]].[c1ccc2cc(N[*:1])ccc2c1]}$$$$V2.0)
P. aeruginosa 23587
  inhibition of MDR RND efflux pumps, concluded from potentiation: efflux inhibition

## COC(=O)[C@H]1[C@H]2C[C@@H]3c4[nH]c5cc(OC)ccc5c4CCN3C[C@H]2C[C@@H](OC(=O)c2cc(OC)c(OC)c(OC)c2)[C@@H]1OC [reserpine]
P. aeruginosa 23587
  inhibition of MDR RND efflux pumps, concluded from potentiation: non inhibition

## CC[C@H]1OC(=O)[C@H](C)[C@@H](O[C@H]2C[C@@](C)(OC)[C@@H](O)[C@H](C)O2)[C@H](C)[C@@H](O[C@@H]2O[C@H](C)C[C@H](N(C)C)[C@H]2O)[C@](C)(O)C[C@@H](C)CN(C)[C@H](C)[C@@H](O)[C@]1(C)O [Azithromycin, azithromycin]
P. aeruginosa 2301 [1]; Example 6
  change of activity in the presence of cefepime and ceftazidime: significant potentiation
P. aeruginosa 2301 [1]; [4]
  Diameter of zone of inhibition: 25 m.m.
P. aeruginosa 2301 [1]; Table 1, +PAN (20 μg/ml), 25 μg/well
  Diameter of zone of inhibition: 28 m.m.
P. aeruginosa 2301 [1]; Table 1, +PAN (20 μg/ml), 50 μg/well
  Diameter of zone of inhibition: 32 m.m.
P. aeruginosa 2301 [1]; Table 1, Control, 25 μg/well
  Diameter of zone of inhibition: SLI
P. aeruginosa 2301 [1]; Table 1, Control, 50 μg/well
  Diameter of zone of inhibition: 13.5H
P. aeruginosa 2301 [1]; Table 6, +Cefepime (2 μg/ml), 50 μg/Well
  Diameter of zone of inhibition: 24H
P. aeruginosa 2301 [1]; Table 6, +Cefepime (2 μg/ml), 100 μg/Well
  Diameter of zone of inhibition: 28H
P. aeruginosa 2301 [1]; Table 6, +Cefepime (2 μg/ml), 200 μg/Well
  Diameter of zone of inhibition: 30H
P. aeruginosa 2301 [1]; Table 6, +Ceftazidime (0.5 μg/ml), 50 μg/Well
  Diameter of zone of inhibition: 32H
P. aeruginosa 2301 [1]; Table 6, +Ceftazidime (0.5 μg/ml), 100 μg/Well
  Diameter of zone of inhibition: 36H
P. aeruginosa 2301 [1]; Table 6, +Ceftazidime (0.5 μg/ml), 200 μg/Well
  Diameter of zone of inhibition: 42H
P. aeruginosa 2301 [1]; Table 6, Control, 50 μg/Well
  Diameter of zone of inhibition: 12H
P. aeruginosa 2301 [1]; Table 6, Control, 100 μg/Well
  Diameter of zone of inhibition: 20H
P. aeruginosa 2301 [1]; Table 6, Control, 200 μg/Well
  Diameter of zone of inhibition: 24H
P. aeruginosa 2301 [2]
  CFU/ml at 48 h: >5 × 10^9 CFU/ml
P. aeruginosa 23587
  change of activity in presence of reserpine: no change
  change of activity on addition of sodium azide: potentiated
  change of activity in the presence of PAN: Synergistic enhancement
P. aeruginosa 23587; Example 3
  change of activity in the presence of cefepime and ceftazidime: significant potentiation
P. aeruginosa 23587; [5]
  Diameter of zone of inhibition: 16 m.m.
P. aeruginosa 23587; Table 1, P. aeruginosa 23587, +PAN (20 μg/ml), 25 μg/well
  Diameter of zone of inhibition: 23.5 m.m.
P. aeruginosa 23587; Table 1, P. aeruginosa 23587, +PAN (20 μg/ml), 50 μg/well
  Diameter of zone of inhibition: 27 m.m.
P. aeruginosa 23587; Table 1, P. aeruginosa 23587, Control, 25 μg/well
  Diameter of zone of inhibition: 19H
P. aeruginosa 23587; Table 1, P. aeruginosa 23587, Control, 50 μg/well
  Diameter of zone of inhibition: 23H
P. aeruginosa 23587; Table 2, P. aeruginosa (23587), +Reserpine (25 μg/ml), 50 μg/well
  Diameter of zone of inhibition: 12H
P. aeruginosa 23587; Table 2, P. aeruginosa (23587), +Reserpine (25 μg/ml), 100 μg/well
  Diameter of zone of inhibition: 20H
P. aeruginosa 23587; Table 2, P. aeruginosa (23587), +Reserpine (25 μg/ml), 200 μg/well
  Diameter of zone of inhibition: 24H
P. aeruginosa 23587; [6]
  Diameter of zone of inhibition: 21H
P. aeruginosa 23587; [7]
  Diameter of zone of inhibition: 24H
P. aeruginosa 23587; [8]
  Diameter of zone of inhibition: 30 m.m.
P. aeruginosa 23587; Table 2, P. aeruginosa (23587), Control, 50 μg/well
  Diameter of zone of inhibition: 12H
P. aeruginosa 23587; Table 2, P. aeruginosa (23587), Control, 100 μg/well
  Diameter of zone of inhibition: 20H
P. aeruginosa 23587; Table 2, P. aeruginosa (23587), Control, 200 μg/well
  Diameter of zone of inhibition: 24H
P. aeruginosa 23587; Table 3, P. aeruginosa 23587, +Cefepime (1 μg/ml), 100 μg/Well
  Diameter of zone of inhibition: 28H
P. aeruginosa 23587; Table 3, P. aeruginosa 23587, +Cefepime (1 μg/ml), 200 μg/Well
  Diameter of zone of inhibition: 30H
P. aeruginosa 23587; Table 3, P. aeruginosa 23587, +Ceftazidime (1 μg/ml), 100 μg/Well
  Diameter of zone of inhibition: 36 m.m.
P. aeruginosa 23587; Table 3, P. aeruginosa 23587, +Ceftazidime (1 μg/ml), 200 μg/Well
  Diameter of zone of inhibition: 42 m.m.
P. aeruginosa 23587; Table 3, P. aeruginosa 23587, Control, 100 μg/Well
  Diameter of zone of inhibition: 20H
P. aeruginosa 23587; Table 3, P. aeruginosa 23587, Control, 200 μg/Well
  Diameter of zone of inhibition: 24H

## CC[n+]1c(-c2ccccc2)c2cc(N)ccc2c2ccc(N)cc21 [Ethidium Bromide, ethidium bromide]
P. aeruginosa 23587; [6]
  Diameter of zone of inhibition: 10H
P. aeruginosa 23587; [7]
  Diameter of zone of inhibition: 13H
P. aeruginosa 23587; [8]
  Diameter of zone of inhibition: 16H

## CS(=O)(=O)O.C[C@H](N)C(=O)OC1CCN(c2c(F)cc3c(=O)c(C(=O)O)cn4c3c2CC[C@@H]4C)CC1 [2′S,5S-(−)-9-Fluoro-8-(4-alaninyloxy-piperidin-1-yl)-5-methyl-6,7-dihydro-1-oxo-1H,5H-benzo[i,j]quinolizine-2-carboxylic acid methane sulfonic acid salt]
[3]; 50 mg/kg BID × 1 day
  % survival: 0%
[3]; 75 mg/kg BID × 1 day
  % survival: 16.6%
[3]; 100 mg/kg BID × 1 day
  % survival: 16.6%

## CN(C)c1cc(NC(=O)CNC(C)(C)C)c(O)c2c1C[C@H]1C[C@H]3[C@H](N(C)C)C(O)=C(C(N)=O)C(=O)[C@@]3(O)C(O)=C1C2=O [Tigecycline, tigecycline]
P. aeruginosa 2301 [2]
  CFU/ml at 48 h: >5 × 10^9 CFU/ml

## CO/N=C(\C(=O)N[C@@H]1C(=O)N2C(C(=O)[O-])=C(C[N+]3(C)CCCC3)CS[C@H]12)c1csc(N)n1 [Cefepime, cefepime]
P. aeruginosa 23587
  inhibition of MDR RND efflux pumps, concluded from potentiation: inhibit RND pumps

## CC(=O)NC[C@H]1CN(c2ccc(N3CCOCC3)c(F)c2)C(=O)O1 [linezolid]
P. aeruginosa 23587
  change of activity in the presence of PAN: Synergistic enhancement

## colistin
P. aeruginosa 2301 [1]; [4]
  Diameter of zone of inhibition: 16 m.m.
P. aeruginosa 2301 [1]; Table 6, +Cefepime (2 μg/ml), 12.5 μg/Well
  Diameter of zone of inhibition: 16 m.m.
P. aeruginosa 2301 [1]; Table 6, +Ceftazidime (0.5 μg/ml), 12.5 μg/Well
  Diameter of zone of inhibition: 16 m.m.
P. aeruginosa 23587
  Diameter of zone of inhibition: 12.5 m.m. and 14 m.m. and 16.5 m.m. and 11.5 m.m. and 16 m.m.
  change of activity in the presence of PAN: no change
P. aeruginosa 23587; [5]
  Diameter of zone of inhibition: 16.5 m.m.
P. aeruginosa 23587; Table 2, P. aeruginosa (23587), +Reserpine (25 μg/ml), 12.5 μg/well
  Diameter of zone of inhibition: 16 m.m.
P. aeruginosa 23587; Table 2, P. aeruginosa (23587), +sodium azide (10 μg/ml), 12.5 μg/well
  Diameter of zone of inhibition: 16 m.m.
P. aeruginosa 23587; Table 3, P. aeruginosa 23587, +Cefepime (1 μg/ml), 12.5 μg/Well
  Diameter of zone of inhibition: 16 m.m.
P. aeruginosa 23587; Table 3, P. aeruginosa 23587, +Ceftazidime (1 μg/ml), 12.5 μg/Well
  Diameter of zone of inhibition: 16 m.m.
